Data reported in PMC8816498, “A Customized Screening Tool Approach for the Development of a Self-Nanoemulsifying Drug Delivery System (SNEDDS)” (AAPS PharmSciTech, 2021).

Tests used:
[1] = Saturation solubility of the drug in individual excipients; format: physicochemical; conditions: 37 °C, 24 h
Description: The saturation solubility of each drug in each of the individual excipients was investigated in triplicate by the following procedure: first, drug and excipients were blended in 2-ml safe lock test tubes ([17], [23], [26]). After short, intense vortex mixing, the mixtures were agitated at 1000 rpm for 24 h at 37 °C under light protection using a ThermoMixer® C (Eppendorf AG, Hamburg, Germany) to achieve an equilibrium state ([7], [12], [16], [17], [23], [26], [27]). […] After centrifugation at 37 °C, a defined mass (50 mg) of the supernatant was withdrawn and transferred to a 25-ml volumetric flask, and the sample was diluted with methanol to a total volume of 25.0 ml. Finally, a sample of 1 ml was analyzed using one of the previously described drug-specific HPLC methods.

[2] = media of pH 1, 4.5 and 6.8; 120 min; at the time of manufacture
Description: All experiments were performed in triplicate with 25 mg of the specific drug, or an equivalent amount of drug-loaded SNEDDS (300 µl) using USP apparatus II (DT 800 LH, ERWEKA GmbH, Langen, Germany). Dissolution was studied in 0.1 N hydrochloric acid (pH 1.0), acetate buffer USP (pH 4.5), and phosphate buffer USP (pH 6.8). All experiments were performed in a media volume of 500 ml at 37 ± 0.5 °C using a paddle speed of 100 rpm. All samples were withdrawn automatically using a fraction collector, equipped with cannula filters of 10 µm pore size and manually diluted 1:1 (v/v) with acetonitrile before HPLC analysis.

Structure (SMILES) | Solubility in Miglyol 812 [1] | Solubility in co-solvents ([1]; Tetra EG, Transcutol HP, Carbowax PEG 400) | Dissolution behaviour [2]
Cc1ccc(-c2cc(C(F)(F)F)nn2-c2ccc(S(N)(=O)=O)cc2)cc1 [Celecoxib] | exceptionally low solubility | high solubility | poor solubility
CC(C)OC(=O)C(C)(C)Oc1ccc(C(=O)c2ccc(Cl)cc2)cc1 [Fenofibrate] | – | – | poor solubility
